This note sets out measurements from patent US20050118572A1, “Single cell assessment of viral infection/replication” (The Board of Trustees of the Leland Stanford Junior …, priority 2002, published 2005).

Series [1] has as its system uninfected CD4 T cells and CD8 T cells. Type of series: cell-based, human. The protocol: (§1) PBMC were infected with a high HIV-1 dose, incubated for three days with indicated concentrations of Gd-Tex, and assessed for annexin-V by flow cytometry. Live CD3 cells were gated and apoptotic percentages quantified for CD4 and CD8 cells.
At Gd-Tex doses below 250 µM, GSH depletion and Gd-Tex toxicity in CD8 T cells and uninfected CD4 T cells was minimal. […] These findings are shown in FIG. 4-5, in which data are shown for subset-defining cell surface marker expression, HIV infection, intracellular GSH and Gd-Tex toxicity (induction of apoptosis and the breaking of the cell permeability barrier), all measured simultaneously for individual cells by 11-color, 13-parameter Hi-D FACS.

The next series concerns HIV-1. The note with it: HIV-1 infected PBMC, TCID50=300/1×10^6 cells, FIG. 5.
Series [2] has as its system HIV-1 infected CD4 T cells. Description: Killing / apoptosis (annexin-V, intracellular p24, EMA) of HIV-1 infected CD4 T cells by FACS. Type of series: cell-based, human. Here is the method: as §1
PBMC were infected with high and low HIV-1 doses and treated for six days with the indicated concentrations and processed as indicated above.
Live CD4 T cells were gated and analyzed for annexin-V and p24 stain.
IL-2 activated, HIV-infected cultures were treated with Gd-Tex at the indicated concentrations for 6 days and processed for flow cytometry. […] Histograms are representative of 4 independent experiments.
For orientation: A flow cytometer gives signals particle by particle.

A further series deals with glutathione (GSH). The series can be described thus: Intracellular glutathione levels by monochlorobimane fluorescence (flow cytometry). It counts as cell-based, human. The protocol: PBMC were isolated and HIV-1 infected as described in materials and methods. Intracellular glutathione levels were assessed using monochlorobimane fluorescence and samples were analyzed by flow cytometry.

For the compound `CC(=O)[O-].CC(=O)[O-].CCc1c(CC)c2cc3nc(cnc4cc(OCCOCCOCCOC)c(OCCOCCOCCOC)cc4ncc4nc(cc1[n-]2)C(CCCO)=C4C)C(C)=C3CCCO.O.[Gd+3]` [Gd-Tex, motexafin gadolinium], in series [1], the “Gd-Tex toxicity in CD8 T cells and uninfected CD4 T cells” value is on record as “minimal”; the “Killing of uninfected CD4 T cells and CD8 T cells” value was “did not kill”. Also, the “HIV-1 production (RT activity, p24 levels)” value in the series on HIV-1 is given as “inhibition of HIV-1 production”. In addition, the “Killing of HIV-infected (p24+) CD4 T cells” value in series [2] (3 uM Gd-Tex) is given as “selectively killed”. Further, in series [2] (50 μM Gd-Tex, 6 days), the “p24 cells among live CD4 T cells infected with HIV-1” value was “decrease of p24 cells”. The “Apoptosis induction in HIV-1 infected CD4 T cells” value in series [2] (Gd-Tex concentrations not cytotoxic to uninfected cells) is “selectively induced apoptosis”. Further, the “GSH depletion in CD8 T cells and uninfected CD4 T cells” value in the series with glutathione (GSH) (Gd-Tex doses below 250 µM) was “minimal”. Also, in the series on glutathione (GSH) (high doses of Gd-Tex), the “GSH depletion in T cells in PBMC” value is “depleted GSH”.
